Data on 20 molecules can be found in patent EP1082127B1 (WARNER-LAMBERT COMPANY LLC, priority 1998, dated 1999).

Assay [1] has as its target T1, ICE (Homo sapiens, UniProt P29466).
T1 sequence (P29466 120-297 limits assumed): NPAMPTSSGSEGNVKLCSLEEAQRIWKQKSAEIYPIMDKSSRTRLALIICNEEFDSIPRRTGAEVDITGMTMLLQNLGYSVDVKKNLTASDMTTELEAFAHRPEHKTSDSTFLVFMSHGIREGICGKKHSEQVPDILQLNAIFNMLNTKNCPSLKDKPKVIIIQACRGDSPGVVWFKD
T1 sequence (P29466 317-404 limits assumed): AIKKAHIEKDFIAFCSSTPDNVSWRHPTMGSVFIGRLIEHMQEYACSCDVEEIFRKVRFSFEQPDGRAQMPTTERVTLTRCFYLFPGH
Kind of assay: ICE Colorimetric Dose-Response (IC50) Assay. The format is biochemical. The conditions noted are these: 60 minutes preincubation, 50 µM Ac-Tyr-Val-Ala-Asp-pNA, 25°C. Here is the method:
Diluted inhibitor stocks are prepared by two-fold serial dilution from a primary stock whose concentration is selected (based on screening results or on prior attempts at IC50 evaluation) to achieve approximately 95% inhibition in the most concentrated well. Aliquots of each dilution are transferred to a microtitre plate in triplicate.
ICE enzyme is diluted to approximately 24 nM in HGE buffer (100 mM Hepes pH 7.5, 0.5 mM EDTA, 20% glycerol, 0.1% Bovine Serum Albumin (BSA), and activated by adding dithiothreitol (DTT) to a final concentration of 5 mM. The activated enzyme is then aliquoted into wells containing inhibitor or vehicle, and the plate is preincubated for 60 minutes at ambient temperature. Substrate (Ac-Tyr-Val-Ala-Asp-pNA) is added to each well to a final concentration of 50 µM, and plates are placed in the microtitre plate-reader thermostated to 25°C. Beginning 5 minutes after addition of substrate, absorbance (405 nm) of wells is monitored for 1 hour, and activity is calculated as the mean rate of change in absorbance during this interval.

The test system of assay [2] is IL-1β production in human peripheral blood mononuclear cells (PBMCs). The assay can be described thus: PBMC Cellular Assay - IC50 Determinations (LPS-stimulated IL-1β production, ELISA). The format is cell-based. The conditions noted are these: human PBMCs stimulated overnight with 10 ng/mL LPS, mature IL-1β by ELISA. From the text: Further evidence that compounds of Formula I are inhibitors of ICE is provided by their ability to inhibit IL-1β production in human peripheral blood mononuclear cells (PBMCs) as described herein. PBMCs are isolated from heparinized blood by centrifugation over a ficoll cushion, then washed three times with phosphate-buffered saline. PBMCs are suspended in a medium containing RPMI 1640 with glutamine, penicillin, streptomycin, and 2% human AB serum, then plated at 10^6 cells per well in 96-well flat bottom plates. PBMCs are stimulated overnight with 10 ng/mL of lipopolysaccharide (LPS, E. coli strain 0111:B4; Calbiochem) in the presence or absence of a compound of Formula I. Medium is harvested, and the level of mature IL-1β was determined using an ELISA kit from R&D Systems. Cells were cultured for an additional 4 hours in the presence of 3-(4,5-dimethylthiazol-2-yl)-2,5-diphenyltetrazolium bromide (MTT) to determine viability.
(An ELISA detects its analyte on a solid surface through an enzyme-linked reagent.)

For assay [3], the target named is T1, ICE. The assay can be described thus: ICE inhibition, Ki determination (fluorogenic substrate Ac-Tyr-Val-Ala-Asp-AMC). Particulars: 15 µM Ac-Tyr-Val-Ala-Asp-AMC, 0.5 nM enzyme, 30°C, reversible competitive model. In kind it is biochemical. Here is the method: Serial dilutions of each compound of the invention are prepared using an initial 8-fold dilution of a DMSO stock into HGE (100 mM HEPES, 20% glycerol v/v, 0.5 mM EDTA), followed by seven serial 2-fold dilutions into HGE + 12.5% DMSO. Ten microliters of diluted stocks or of vehicle (HGE + 12.5% DMSO) are placed in triplicate onto a 96-well microtiter plate. Enzyme is diluted into assay buffer (HGE, 5 mM DTT, 15 µM Ac-Tyr-Val-Ala-Asp-AMC; 0.5 nM final enzyme concentration, pre-warmed to 30°C), and this reaction mixture is added to the plate at 90 µL/well. Substrate hydrolysis is monitored for 300 seconds at 30°C using 385 and 460 nm excitation and emission filters, respectively. Triplicate curves are averaged, and slopes are evaluated by linear regression. To evaluate Ki, plots of percent inhibition vs inhibitor concentration are fit by non-linear regression to a reversible, competitive model: [formula] where the competition factor is (1 + [S]/KM) = 2.

Broadly, the IC50 is the concentration at which inhibition is half-maximal. High values mean weaker potency in that assay, low ones greater potency in that assay. The Ki is the equilibrium dissociation constant of an inhibitor or competing ligand from its target. Low values mean a stronger hold on the target, high ones a looser hold on the target. With `CC(C)[C@H](CC(=O)NCCOc1ccccc1)C(=O)NC(C=O)CC(=O)O` (stereo partly drawn) [Example 8], the IC50 at ICE [1] turned out to be 0.54 µM; in assay [2], 3.75 µM. The same molecule registered an inhibition constant (Ki) on ICE [3] of 0.015 µM.
The matching figures for `CC(C)C(CC(=O)NCCCc1ccccc1)C(=O)NC(CC(=O)O)C(=O)COc1cc2ccccc2cc1-c1ncc[nH]1` (stereo not drawn) [Example 14, 5-[3-(1H-Imidazol-2-yl)-naphthalen-2-yloxy]-3-{3-methyl-2-[(3-phenyl-propylcarbamoyl)-methyl]-butyrylamino}-4-oxo-pentanoic acid]: 0.0087 µM, 19 µM and 0.107 µM.
Taken in the same sequence, the figures for `CC(C)C(CC(=O)N(C)CCOc1ccccc1)C(=O)NC(C=O)CC(=O)O` (stereo not drawn) [Example 22, 3-(3-Methyl-2-{[methyl-(2-phenoxy-ethyl)-carbamoyl]-methyl}-butyrylamino)-4-oxo-butyric acid] were 1.67 µM, 19 µM and 0.133 µM.
In the case of `CCOC1OC(=O)CC1NC(=O)C(CC(=O)NCCn1cnc2ccccc21)C(C)C` (stereo not drawn) [Example 35, N^4-(2-Benzoimidazol-1-yl-ethyl)-N^1-(2-ethoxy-5-oxo-tetrahydro-furan-3-yl)-2-isopropyl-succinamide], the IC50 was 1.06 µM against ICE [1] and 5.5 µM in assay [2]. On ICE [3], this molecule displayed a Ki of 0.0511 µM.
The matching figures for `CCOC1OC(=O)CC1NC(=O)C(CC(=O)NCCOc1ccccc1)C(C)C` (stereo not drawn) [Example 39, N^1-(2-Ethoxy-5-oxo-tetrahydro-furan-3-yl)-2-isopropyl-N^4-(2-phenoxyethyl)-succinamide]: 13.2 µM, 5 µM and 0.446 µM.
`CCOC1OC(=O)CC1NC(=O)C(CC(=O)NCCc1c[nH]c2cc(OC)ccc12)C(C)C` (stereo not drawn) [Example 40, N^1-(2-Ethoxy-5-oxo-tetrahydro-furan-3-yl)-2-isopropyl-N^4-[2-(6-methoxy-1H-indol-3-yl)-ethyl]-succinamide]: the IC50 on ICE [1] was determined as 1.15 µM; in assay [2], 2.9 µM. At ICE [3], the affinity, expressed as Ki, was 0.0354 µM.
Taken in the same sequence, the figures for `CCOC1OC(=O)CC1NC(=O)C(CC(=O)NCCn1nnc2ccccc21)C(C)C` (stereo not drawn) [Example 41, N^4-(2-Benzotriazol-1-yl-ethyl)-N^1-(2-ethoxy-5-oxo-tetrahydro-furan-3-yl)-2-isopropyl-succinamide] were 13 µM, 17.5 µM and 0.409 µM.
The matching figures for `CCOC1OC(=O)CC1NC(=O)C(CC(=O)NCCn1ncc2ccccc21)C(C)C` (stereo not drawn) [Example 42, N^1-(2-Ethoxy-5-oxo-tetrahydro-furan-3-yl)-N^4-(2-indazol-1-yl-ethyl)-2-isopropyl-succinamide]: 1.73 µM, 7.5 µM and 0.191 µM.
The matching figures for `CCOC1OC(=O)CC1NC(=O)C(CC(=O)NCCNc1ccccc1)C(C)C` (stereo not drawn) [Example 43, N^1-(2-Ethoxy-5-oxo-tetrahydro-furan-3-yl)-2-isopropyl-N^4-(2-phenylamino-ethyl)-succinamide]: 2.28 µM, 7.5 µM and 0.0981 µM.
Take `CCOC1OC(=O)CC1NC(=O)C(CC(=O)NCCc1c[nH]c2cc(F)ccc12)C(C)C` (stereo not drawn) [Example 44, N^1-(2-Ethoxy-5-oxo-tetrahydro-furan-3-yl)-N^4-[2-(6-fluoro-1H-indol-3-yl)-ethyl]-2-isopropyl-succinamide]: the IC50 was found to be 1.22 µM against ICE [1] and 2.5 µM in assay [2]. The molecule further returned a Ki on ICE [3] of 0.0475 µM.
For `CCOC1OC(=O)CC1NC(=O)C(CC(=O)NCCCc1cc(OC)c(OC)c(OC)c1)C(C)C` (stereo not drawn) [Example 47, N^1-(2-Ethoxy-5-oxo-tetrahydro-furan-3-yl)-2-isopropyl-N^4-[3-(3,4,5-trimethoxy-phenyl)-propyl]-succinamide], the IC50 against ICE [1] worked out at 112 µM; in assay [2], 11 µM. The Ki on ICE [3] was 1.93 µM.
Taken in the same sequence, the figures for `CCOC1OC(=O)CC1NC(=O)C(CC(=O)NCCc1ccccc1)C(C)C` (stereo not drawn) [Example 48, N^1-(2-Ethoxy-5-oxo-tetrahydro-furan-3-yl)-2-isopropyl-N^4-[2-(phenyl)-ethyl]-succinamide] were 59.9 µM, 13.5 µM and 1.01 µM.
Molecule `CCOC1OC(=O)CC1NC(=O)C(CC(=O)NCCCCc1ccccc1)C(C)C` (stereo not drawn) [Example 49, N^1-(2-Ethoxy-5-oxo-tetrahydro-furan-3-yl)-2-isopropyl-N^4-[4-(phenyl)-butyl]-succinamide] gave a half-maximal inhibitory concentration (IC50) on ICE [1] of 123 µM. The molecule further yielded an inhibition constant (Ki) on ICE [3] of 2.15 µM.
Take `CCOC1OC(=O)CC1NC(=O)C(CC(=O)NCCn1ccc2ccccc21)C(C)C` (stereo not drawn) [Example 50, N^1-(2-Ethoxy-5-oxo-tetrahydro-furan-3-yl)-N^4-(2-indol-1-yl-ethyl)-2-isopropyl-succinamide]: the IC50 against ICE [1] was 0.924 µM; in assay [2], 2 µM. On ICE [3], this molecule showed a Ki of 0.0538 µM.
Taken in the same sequence, the figures for `CCOC1OC(=O)CC1NC(=O)[C@@H](CC(=O)NCCCc1ccccc1)C(C)C` (stereo partly drawn) [Example 51, N^1-(2-Ethoxy-5-oxo-tetrahydro-furan-3-yl)-2-isopropyl-N^4-[4-(phenyl)-propyl]-succinamide] were 15 µM, 16.2 µM and 0.259 µM.
Taken in the same sequence, the figures for `CCOC1OC(=O)CC1NC(=O)C(CC(=O)NCCc1c[nH]c2ccc(F)cc12)C(C)C` (stereo not drawn) [Example 52, N^1-(2-Ethoxy-5-oxo-tetrahydro-furan-3-yl)-N^4-[2-(5-fluoro-1H-indol-3-yl)-ethyl]-2-isopropyl-succinamide] were 0.486 µM, 0.75 µM and 0.0185 µM.
The matching figures for `COc1cc(CCCNC(=O)C[C@H](C(=O)NC(C=O)CC(=O)O)C(C)C)cc(OC)c1OC` (stereo partly drawn) [Example 62, 3-(3-methyl-2-{[3-(3,4,5-trimethoxy-pheny)-propylcarbamoyl]-methyl}-butyrylamino)-4-oxo-butyric acid]: 2.56 µM, 23 µM and 0.274 µM.
For `CCOC(=O)CC(C=O)NC(=O)C(CC(=O)NCCOc1ccccc1)C(C)C` (stereo not drawn) [Example 63, 3-{3-Methyl-2-[(2-phenoxy-ethylcarbamoyl)-methyl]-butyrylamino}-4-oxo-butyric acid ethyl ester], the IC50 against ICE [1] worked out at 197 µM; in assay [2], 14.5 µM. The same molecule had an inhibition constant (Ki) on ICE [3] of 6.92 µM.
Regarding `CCOC(=O)CC(C#N)NC(=O)C(CC(=O)NCCOc1ccccc1)C(C)C` (stereo not drawn) [Example 64, 3-Cyano-3-{3-methyl-2-[(2-phenoxy-ethylcarbamoyl)-methyl]-butyrylamino}-propionic acid ethyl ester], the IC50 in assay [2] was more than 100 µM. On ICE [3], the Ki is more than 100 µM.
Turning to `CC(C)C(CC(=O)NCCOc1ccccc1)C(=O)NC(C#N)CC(=O)O` (stereo not drawn) [Example 65, 3-Cyano-3-{3-methyl-2-[(2-phenoxy-ethylcarbamoyl)-methyl]-butyrylamino}-propionic acid], in assay [2], the IC50 was more than 100 µM. Moreover, on ICE [3], the Ki turned out to be 107 µM.
